# Data reported in US20060069132A1, “Azolecarboxamide herbicides” (priority 2004, published 2006).
# Tests used:
# Assay in all cases: Test E pre-/postemergence herbicide test
# itchgrass = type: in vivo, Rottboellia cochinchinensis
# From the text: (§1) Seeds of plant species selected from bipinnate beggarticks (Bidens bipinnata L.), hairy beggarticks (Bidens radiata Thuill.), bermudagrass (Cynodon dactylon (L.) Pers.), Surinam grass (Urochloa decumbens (Staph) R. D. Webster, previously named Brachiaria decumbens Stapf), large crabgrass (Digitaria sanguinalis (L.) Scop.), green foxtail (Setaria viridis (L.) P. Beauv.), goosegrass (Eleusine indica (L.) Gaertn.), johnsongrass (Sorghum halepense (L.) Pers.), kochia (Kochia scoparia (L.) Schrad.), pitted morningglory (Ipomoea lacunosa L.), purple nutsedge (Cyperus rotundus L.), common ragweed (Ambrosia elatior L.), mustard (Brassica nigra (L.) W. D. J. Koch), guineagrass (Panicum maximum Jacq.), dallisgrass (Paspalum dilatatum Poir.), barnyardgrass (Echinochloa crus-galli (L). P. Beauv.), southern sandbur (Cenchrus echinatus L.), common sowthistle (Sonchus oleraceous L.), prickly sida (Sida spinosa L.), Italian ryegrass (Lolium multiflorum Lam.), common purslane (Portulaca oleracea L.), broadleaf signalgrass (Brachiaria platyphylla (Griseb.) Nash), common groundsel (Senecio vulgaris L.), common chickweed (Stellaria media (L.) Vill/Cyr.), tropical spiderwort (Commelina benghalensis L.), annual bluegrass (Poa annua L.), downy bromegrass (Bromus tectorum L.), itchgrass (Rottboellia cochinchinensis (L.) L.f.), quackgrass (Elytrigia repens (L.) Nevski), Canada horseweed (Erigeron Canadensis L.), field bindweed (Convolvulus arvensis L.), spotted spurge (Euphorbia maculata L.), common mallow (Malva sylvestris (=s silvestris) L.), and Russian thistle (Salsola kali L. ssp. Ruthenica (Iljin) Soo) were planted and treated preemergence with test chemicals formulated in a non-phytotoxic solvent mixture which included a surfactant.
# (§2) At the same time, plants selected from these weed species were treated with postemergence applications of some of the test chemicals formulated in the same manner. Plants ranged in height from 2 to 18 cm (1- to 4-leaf stage) for postemergence treatments. Treated plants and controls were maintained in a greenhouse for 12 to 14 days, after which time all species were compared to controls and visually evaluated. Plant response ratings, summarized in Table E, are based on a scale of 0 to 100 where 0 is no effect and 100 is complete control. A dash (-) response means no test result.
# common chickweed = type: in vivo, Stellaria media
# From the text: as §1, §2
# common sowthistle = type: in vivo, Sonchus oleraceous
# From the text: as §1, §2
# purple nutsedge = type: in vivo, Cyperus rotundus
# From the text: as §1, §2
# downy bromegrass = type: in vivo, Bromus tectorum
# From the text: as §1, §2
# goosegrass = type: in vivo, Eleusine indica
# From the text: as §1, §2
# johnsongrass = type: in vivo, Sorghum halepense
# From the text: as §1, §2
# bermudagrass = type: in vivo, Cynodon dactylon
# From the text: as §1, §2
# green foxtail = type: in vivo, Setaria viridis
# From the text: as §1, §2
# broadleaf signalgrass = type: in vivo, Brachiaria platyphylla
# From the text: as §1, §2
# common purslane = type: in vivo, Portulaca oleracea
# From the text: as §1, §2
# annual bluegrass = type: in vivo, Poa annua
# From the text: as §1, §2
# [1] = Postemergence, 500 g ai/ha, scale 0 to 100
# [2] = Postemergence, 250 g ai/ha, scale 0 to 100
# [3] = Preemergence, 62 g ai/ha, scale 0 to 100
# [4] = Preemergence, 125 g ai/ha, scale 0 (no effect) to 100 (complete control)
# [5] = Preemergence, 500 g ai/ha, scale 0 (no effect) to 100 (complete control)
# [6] = postemergence, 125 g ai/ha, scale 0 to 100
# [7] = postemergence, 62 g ai/ha, scale 0 to 100
# [8] = Preemergence, 250 g ai/ha, scale 0 (no effect) to 100 (complete control)
# [9] = Preemergence, 125 g ai/ha, scale 0 to 100
structure (smiles),measurement,setting,value
"CCn1nc(C(C)(C)C)cc1C(=O)Nc1cc(C(=O)N(C)C)ccc1F [Compound 6, N-[5-[(dimethylamino)carbonyl]-2-fluorophenyl]-3-(1,1-dimethylethyl)-1-ethyl-1H-pyrazole-5-carboxamide]","Plant response rating, Itchgrass",itchgrass; [1],95
same,"Plant response rating, Itchgrass",itchgrass; [2],95
same,"Plant response rating, Itchgrass",itchgrass; [3],90
same,"Plant response rating, Itchgrass",itchgrass; [4],95
same,"Plant response rating, Itchgrass",itchgrass; [5],95
same,"Plant response rating, Itchgrass",itchgrass; [6],90
same,"Plant response rating, Itchgrass",itchgrass; [7],90
same,"Plant response rating, Chickweed",common chickweed; [1],100
same,"Plant response rating, Chickweed",common chickweed; [2],100
same,"Plant response rating, Chickweed",common chickweed; [3],90
same,"Plant response rating, Chickweed",common chickweed; [4],95
same,"Plant response rating, Chickweed",common chickweed; [8],95
same,"Plant response rating, Chickweed",common chickweed; [5],100
same,"Plant response rating, Chickweed",common chickweed; [6],100
same,"Plant response rating, Chickweed",common chickweed; [7],100
same,"Plant response rating, Sowthistle",common sowthistle; [1],100
same,"Plant response rating, Sowthistle",common sowthistle; [2],100
same,"Plant response rating, Sowthistle",common sowthistle; [3],95
same,"Plant response rating, Sowthistle",common sowthistle; [4],95
same,"Plant response rating, Sowthistle",common sowthistle; [8],100
same,"Plant response rating, Sowthistle",common sowthistle; [5],100
same,"Plant response rating, Sowthistle",common sowthistle; [6],95
same,"Plant response rating, Sowthistle",common sowthistle; [7],75
same,"Plant response rating, Nutsedge, Purple",purple nutsedge; [3],60
same,"Plant response rating, Nutsedge, Purple",purple nutsedge; [4],100
same,"Plant response rating, Nutsedge, Purple",purple nutsedge; [8],100
same,"Plant response rating, Nutsedge, Purple",purple nutsedge; [5],100
same,"Plant response rating, Nutsedge, Purple",purple nutsedge; [6],95
same,"Plant response rating, Nutsedge, Purple",purple nutsedge; [7],75
same,"Plant response rating, Bromegrass, Downy",downy bromegrass; [1],100
same,"Plant response rating, Bromegrass, Downy",downy bromegrass; [2],100
same,"Plant response rating, Bromegrass, Downy",downy bromegrass; [3],90
same,"Plant response rating, Bromegrass, Downy",downy bromegrass; [4],95
same,"Plant response rating, Bromegrass, Downy",downy bromegrass; [8],95
same,"Plant response rating, Bromegrass, Downy",downy bromegrass; [5],100
same,"Plant response rating, Bromegrass, Downy",downy bromegrass; [6],98
same,"Plant response rating, Bromegrass, Downy",downy bromegrass; [7],95
same,"Plant response rating, Goosegrass",goosegrass; [1],98
same,"Plant response rating, Goosegrass",goosegrass; [2],98
same,"Plant response rating, Goosegrass",goosegrass; [3],85
same,"Plant response rating, Goosegrass",goosegrass; [4],95
same,"Plant response rating, Goosegrass",goosegrass; [5],100
same,"Plant response rating, Goosegrass",goosegrass; [6],98
same,"Plant response rating, Goosegrass",goosegrass; [7],90
same,"Plant response rating, Johnsongrass",johnsongrass; [1],98
same,"Plant response rating, Johnsongrass",johnsongrass; [2],98
same,"Plant response rating, Johnsongrass",johnsongrass; [3],90
same,"Plant response rating, Johnsongrass",johnsongrass; [4],90
same,"Plant response rating, Johnsongrass",johnsongrass; [8],90
same,"Plant response rating, Johnsongrass",johnsongrass; [5],100
same,"Plant response rating, Johnsongrass",johnsongrass; [6],95
same,"Plant response rating, Johnsongrass",johnsongrass; [7],90
same,"Plant response rating, Bermudagrass",bermudagrass; [1],98
same,"Plant response rating, Bermudagrass",bermudagrass; [2],90
same,"Plant response rating, Bermudagrass",bermudagrass; [3],90
same,"Plant response rating, Bermudagrass",bermudagrass; [4],95
same,"Plant response rating, Bermudagrass",bermudagrass; [8],95
same,"Plant response rating, Bermudagrass",bermudagrass; [5],100
same,"Plant response rating, Bermudagrass",bermudagrass; [6],80
same,"Plant response rating, Bermudagrass",bermudagrass; [7],35
same,"Plant response rating, Foxtail, Green",green foxtail; [1],98
same,"Plant response rating, Foxtail, Green",green foxtail; [2],98
same,"Plant response rating, Foxtail, Green",green foxtail; [3],95
same,"Plant response rating, Foxtail, Green",green foxtail; [4],95
same,"Plant response rating, Foxtail, Green",green foxtail; [5],100
same,"Plant response rating, Foxtail, Green",green foxtail; [6],90
same,"Plant response rating, Foxtail, Green",green foxtail; [7],80
same,"Plant response rating, Signalgrass",broadleaf signalgrass; [1],98
same,"Plant response rating, Signalgrass",broadleaf signalgrass; [2],95
same,"Plant response rating, Signalgrass",broadleaf signalgrass; [3],75
same,"Plant response rating, Signalgrass",broadleaf signalgrass; [4],75
same,"Plant response rating, Signalgrass",broadleaf signalgrass; [5],95
same,"Plant response rating, Signalgrass",broadleaf signalgrass; [6],90
same,"Plant response rating, Signalgrass",broadleaf signalgrass; [7],35
same,"Plant response rating, Purslane",common purslane; [1],100
same,"Plant response rating, Purslane",common purslane; [2],100
same,"Plant response rating, Purslane",common purslane; [3],100
same,"Plant response rating, Purslane",common purslane; [4],100
same,"Plant response rating, Purslane",common purslane; [8],100
same,"Plant response rating, Purslane",common purslane; [5],100
same,"Plant response rating, Purslane",common purslane; [6],90
same,"Plant response rating, Purslane",common purslane; [7],75
same,"Plant response rating, Bluegrass",annual bluegrass; [1],98
same,"Plant response rating, Bluegrass",annual bluegrass; [2],98
same,"Plant response rating, Bluegrass",annual bluegrass; [3],100
same,"Plant response rating, Bluegrass",annual bluegrass; [4],100
same,"Plant response rating, Bluegrass",annual bluegrass; [5],100
same,"Plant response rating, Bluegrass",annual bluegrass; [6],98
same,"Plant response rating, Bluegrass",annual bluegrass; [7],98
CCNC(=O)c1ccnc(NC(=O)c2cc(C(C)(C)C)nn2CC)c1 [Compound 152],"Plant response rating, Itchgrass",itchgrass; [1],75
same,"Plant response rating, Itchgrass",itchgrass; [2],75
same,"Plant response rating, Itchgrass",itchgrass; [3],20
same,"Plant response rating, Itchgrass",itchgrass; [9],60
same,"Plant response rating, Itchgrass",itchgrass; [8],75
same,"Plant response rating, Itchgrass",itchgrass; [5],80
same,"Plant response rating, Itchgrass",itchgrass; [6],60
same,"Plant response rating, Chickweed",common chickweed; [1],100
same,"Plant response rating, Chickweed",common chickweed; [3],90
same,"Plant response rating, Chickweed",common chickweed; [9],95
same,"Plant response rating, Chickweed",common chickweed; [8],100
same,"Plant response rating, Chickweed",common chickweed; [5],100
same,"Plant response rating, Sowthistle",common sowthistle; [1],100
same,"Plant response rating, Sowthistle",common sowthistle; [2],90
same,"Plant response rating, Sowthistle",common sowthistle; [3],80
same,"Plant response rating, Sowthistle",common sowthistle; [9],80
same,"Plant response rating, Sowthistle",common sowthistle; [8],95
same,"Plant response rating, Sowthistle",common sowthistle; [5],95
same,"Plant response rating, Nutsedge, Purple",purple nutsedge; [1],75
same,"Plant response rating, Nutsedge, Purple",purple nutsedge; [2],60
same,"Plant response rating, Nutsedge, Purple",purple nutsedge; [3],0
same,"Plant response rating, Nutsedge, Purple",purple nutsedge; [9],20
same,"Plant response rating, Nutsedge, Purple",purple nutsedge; [8],50
same,"Plant response rating, Nutsedge, Purple",purple nutsedge; [5],60
same,"Plant response rating, Nutsedge, Purple",purple nutsedge; [6],30
same,"Plant response rating, Bromegrass, Downy",downy bromegrass; [1],80
same,"Plant response rating, Bromegrass, Downy",downy bromegrass; [2],75
same,"Plant response rating, Bromegrass, Downy",downy bromegrass; [3],0
same,"Plant response rating, Bromegrass, Downy",downy bromegrass; [9],30
same,"Plant response rating, Bromegrass, Downy",downy bromegrass; [8],60
same,"Plant response rating, Bromegrass, Downy",downy bromegrass; [5],90
same,"Plant response rating, Goosegrass",goosegrass; [1],75
same,"Plant response rating, Goosegrass",goosegrass; [2],60
same,"Plant response rating, Goosegrass",goosegrass; [3],30
same,"Plant response rating, Goosegrass",goosegrass; [9],70
same,"Plant response rating, Goosegrass",goosegrass; [8],80
same,"Plant response rating, Goosegrass",goosegrass; [5],90
same,"Plant response rating, Goosegrass",goosegrass; [6],50
same,"Plant response rating, Johnsongrass",johnsongrass; [1],95
same,"Plant response rating, Johnsongrass",johnsongrass; [2],80
same,"Plant response rating, Johnsongrass",johnsongrass; [3],30
same,"Plant response rating, Johnsongrass",johnsongrass; [9],50
same,"Plant response rating, Johnsongrass",johnsongrass; [8],80
same,"Plant response rating, Johnsongrass",johnsongrass; [5],85
same,"Plant response rating, Johnsongrass",johnsongrass; [6],70
same,"Plant response rating, Bermudagrass",bermudagrass; [1],75
same,"Plant response rating, Bermudagrass",bermudagrass; [2],75
same,"Plant response rating, Bermudagrass",bermudagrass; [3],70
same,"Plant response rating, Bermudagrass",bermudagrass; [9],90
same,"Plant response rating, Bermudagrass",bermudagrass; [8],95
same,"Plant response rating, Bermudagrass",bermudagrass; [5],95
same,"Plant response rating, Bermudagrass",bermudagrass; [6],40
same,"Plant response rating, Foxtail, Green",green foxtail; [1],85
same,"Plant response rating, Foxtail, Green",green foxtail; [2],85
same,"Plant response rating, Foxtail, Green",green foxtail; [3],20
same,"Plant response rating, Foxtail, Green",green foxtail; [9],70
same,"Plant response rating, Foxtail, Green",green foxtail; [8],85
same,"Plant response rating, Foxtail, Green",green foxtail; [5],100
same,"Plant response rating, Foxtail, Green",green foxtail; [6],40
same,"Plant response rating, Signalgrass",broadleaf signalgrass; [1],70
same,"Plant response rating, Signalgrass",broadleaf signalgrass; [2],60
same,"Plant response rating, Signalgrass",broadleaf signalgrass; [3],10
same,"Plant response rating, Signalgrass",broadleaf signalgrass; [9],40
same,"Plant response rating, Signalgrass",broadleaf signalgrass; [8],70
same,"Plant response rating, Signalgrass",broadleaf signalgrass; [5],80
same,"Plant response rating, Signalgrass",broadleaf signalgrass; [6],20
same,"Plant response rating, Purslane",common purslane; [3],0
same,"Plant response rating, Purslane",common purslane; [9],0
same,"Plant response rating, Purslane",common purslane; [8],50
same,"Plant response rating, Purslane",common purslane; [5],100
same,"Plant response rating, Bluegrass",annual bluegrass; [1],85
same,"Plant response rating, Bluegrass",annual bluegrass; [2],85
same,"Plant response rating, Bluegrass",annual bluegrass; [3],60
same,"Plant response rating, Bluegrass",annual bluegrass; [9],80
same,"Plant response rating, Bluegrass",annual bluegrass; [8],95
same,"Plant response rating, Bluegrass",annual bluegrass; [5],95
same,"Plant response rating, Bluegrass",annual bluegrass; [6],60
